In paper PMC2605960 (Biochemical Journal, 2008):
Numbering of substitutions follows the chain as printed.

Columns and labels:
[1] = biological target: T1, FLAG-α1b-adrenoceptor TMI-TMIV-eYFP (Mesocricetus auratus, UniProt P18841, L166A/L167A/L65A/V66A); conditions: pKi, [3H]prazosin competition binding
T1 sequence (P18841 1-515 L65A/V66A/L166A/L167A): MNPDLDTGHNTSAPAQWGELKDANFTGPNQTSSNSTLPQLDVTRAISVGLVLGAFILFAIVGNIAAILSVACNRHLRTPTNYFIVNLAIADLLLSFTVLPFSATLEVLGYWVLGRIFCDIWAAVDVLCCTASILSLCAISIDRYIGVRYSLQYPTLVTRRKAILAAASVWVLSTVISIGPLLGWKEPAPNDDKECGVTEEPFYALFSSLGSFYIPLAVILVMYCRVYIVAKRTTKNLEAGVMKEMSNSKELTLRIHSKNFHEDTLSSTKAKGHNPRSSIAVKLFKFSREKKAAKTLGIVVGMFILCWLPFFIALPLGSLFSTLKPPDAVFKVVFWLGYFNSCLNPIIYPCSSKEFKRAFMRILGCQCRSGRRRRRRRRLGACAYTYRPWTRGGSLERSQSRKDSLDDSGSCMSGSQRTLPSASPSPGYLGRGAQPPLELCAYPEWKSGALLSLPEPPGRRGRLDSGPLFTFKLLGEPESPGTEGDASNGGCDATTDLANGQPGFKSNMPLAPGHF

[2] = biological target: T2, FLAG-α1b-adrenoceptor-eYFP (Mesocricetus auratus, UniProt P18841); assay type: binding
T2 sequence (P18841 1-515): T1 sequence (P18841 1-515 L65A/V66A/L166A/L167A) with A65L, A66V, A166L, A167L

[3] = biological target: T1, FLAG-α1b-adrenoceptor TMI-TMIV-eYFP; test: Intact cell anti-FLAG ELISA of cell surface receptor; assay type: cell-based; conditions: for cell surface delivery of mutant receptor (anti-FLAG ELISA): 10^−5 M of each drug
[4] = biological target: T1, FLAG-α1b-adrenoceptor TMI-TMIV-eYFP; assay type: cell-based; conditions: pre-treated with 10^−7 M overnight, then extensively washed; 0.4 nM [3H]prazosin
[5] = biological target: T3, FLAG-α1b-adrenoceptor TMI-TMIV (Mesocricetus auratus, UniProt P18841, L166A/L167A/L65A/V66A); test: Sequential 3-colour FRET imaging; assay type: cell-based; conditions: 10^−7 M, 12 h; transiently transfected HEK-293 cells
T3 sequence (P18841 1-515 L65A/V66A/L166A/L167A) 1: T1 sequence (P18841 1-515 L65A/V66A/L166A/L167A)
T3 sequence (P18841 1-515 L65A/V66A/L166A/L167A) 2: T1 sequence (P18841 1-515 L65A/V66A/L166A/L167A)
T3 sequence (P18841 1-515 L65A/V66A/L166A/L167A) 3: T1 sequence (P18841 1-515 L65A/V66A/L166A/L167A)

Question: What does the source list for `CNC[C@H](O)c1ccc(O)c(O)c1` [adrenaline]?
Answer: Ki [1]: 63.1 nM; Ki [2]: 501 nM

Question: With `O=C(c1ccc(F)cc1)C1CCN(CCn2c(=O)[nH]c3ccccc3c2=O)CC1` [ketanserin] as the compound, how does the “cell surface delivery of mutant receptor (anti-FLAG ELISA)” value ([3]; overnight treatment) read?
Answer: significant cell surface delivery

Question: What does the source list for `COc1cc2nc(N3CCN(C(=O)c4ccco4)CC3)nc(N)c2cc1OC` [prazosin]?
Answer: cell surface delivery of mutant receptor (anti-FLAG ELISA) ([3]; overnight treatment): most effective ligand tested; concentration of maximum effect on cell surface mutant receptor ([3]; overnight treatment): 10^−7 M; incubation time for maximum effect on cell surface mutant receptor ([3]; results not shown): 14 to 16 h; cell surface mutant receptor by intact cell [3H]prazosin binding [4]: marked increases of cell surface FLAG-α1b-adrenoceptor TMI-TMIV-eYFP; sequential FRET signal (eCFP to dsRed2 FRET) [5]: increased

Question: `Cc1nc2sccn2c(=O)c1CCN1CCC(=C(c2ccc(F)cc2)c2ccc(F)cc2)CC1` [ritanserin] was tested. Which “cell surface delivery of mutant receptor (anti-FLAG ELISA)” value ([3]; overnight treatment) did it give?
Answer: only ketanserin caused significant cell surface delivery
